Laboratory results taken from patent US10271734B2, “Photoacoustic apparatus” (CANON KABUSHIKI KAISHA, priority 2015, dated 2019).

What was measured:
[1] = Temporal change in blood ICG concentration after tail vein injection into a nude mouse (FIG. 2); type: in vivo; conditions: ICG 20 nanomoles
Method: FIG. 2 is a diagram illustrating a temporal change in the concentration of the contrast agent 1012 in the blood when ICG (20 nanomoles) which is the contrast agent 1012 was injected into a tail vein of a nude mouse. The vertical axis of FIG. 2 represents the blood ICG concentration and the horizontal axis represents the time elapsed after the contrast agent 1012 was injected to the nude mouse.

[2] = J Clin Invest., 1960 April, 39(4): p. 592-600; cited from earlier work

- time after injection within which the concentration of ICG present in the blood decreases to a half or smaller [1]: ≤ 10 min
SMILES: CC1(C)C(/C=C/C=C/C=C/C=C2\N(CCCCS(=O)(=O)O)c3ccc4ccccc4c3C2(C)C)=[N+](CCCCS(=O)(=O)[O-])c2ccc3ccccc3c21 [ICG, Indocyanine green]
- half-life of ICG in the blood [2]: approximately 3 minutes
